This assay deals with Coptotermes formosanus. The assay can be described thus: Insect repellant activity against Coptotermes formosanus assessed as repellency threshold concentration measured up to 24 hr by multiple-step triage method. It counts as functional.

Structures are written as SMILES.

Consider `CC(C)[C@@H]1CC[C@]2(C)C(=CC(=O)C[C@@H]2C)C1`, for which the MEC is 6.25 µg/g.

For the molecule `C=C(C)[C@@H]1CC[C@@]2(C)CCC(=O)C=C2C1`, the MEC came out at 6.25 µg/g.

In the case of `C=C(C)[C@@H]1CC[C@]2(C)C(=CC(=O)C[C@@H]2C)C1`, the MEC is 12.5 µg/g.

For the molecule `C=C(C)[C@@H]1CC[C@]2(C)CCC(=O)C=C2C1`, the MEC was determined as 12.5 µg/g.

For the molecule `C=C(C)[C@@H]1CC[C@@]2(C)C=CC(=O)C=C2C1`, the MEC came out at 25 µg/g.

In the case of `CC(C)[C@@H]1CC[C@@]2(C)C=CC(=O)C=C2C1`, the MEC turned out to be 25 µg/g.

On to `CC1=CC(=O)C=C2C[C@H](C(C)C)CC[C@@]12C`, for which the MEC stood at 25 µg/g.

As to `C=C(C)[C@@H]1CC[C@@]2(C)C(C)=CC(=O)C=C2C1`, the MEC was determined as 50 µg/g.

Regarding `C=C(C)[C@@H]1CCC2C[C@@H](O)C[C@@H](C)[C@]2(C)C1` (some centres not stated), the MEC is 50 µg/g.

As to `C=C(C)[C@@H]1CCC2CC3(C[C@@H](C)[C@]2(C)C1)OCCO3` (some centres not stated) [1,10-DIHYDRONOOTKATONE KETAL], the MEC was 1.56 µg/g.

For the molecule `C=C(C)[C@@H]1CCC2CC(=O)C[C@@H](C)[C@]2(C)C1` (some centres not stated) [1,10-DIHYDRONOOTKATONE], the MEC came out at 1.56 µg/g.

Regarding `CC(C)[C@@H]1CCC2=CC(=O)C[C@H](C)[C@@]2(C)C1` [4BETA,5BETA-1,10-DIHYDRONOOTKATONE], the MEC is 3.25 µg/g.

Take `CC(C)[C@@H]1CCC2=CC(=O)C[C@@H](C)[C@]2(C)C1` [11,12-DIHYDRONOOTKATONE]: the MEC turned out to be 6.25 µg/g.

As for `C=C(C)[C@@H]1CCC2=C[C@@H](O)C[C@@H](C)[C@]2(C)C1` [BETA-NOOTKATOL], the MEC is 100 µg/g.

Take `C=C(C)[C@@H]1CCC2=CC(=O)C[C@@H](C)[C@]2(C)C1` [NOOTKATONE]: the MEC worked out at 12.5 µg/g.

Take `CC(C)[C@@H]1CCC2CC3(C[C@@H](C)[C@]2(C)C1)OCCO3` (some centres not stated) [TETRAHYDRONOOTKATONE KETAL]: the MEC came to 1.56 µg/g.

On to `CC(C)[C@@H]1CCC2CC(=O)C[C@@H](C)[C@]2(C)C1` (some centres not stated) [TETRAHYDRONOOTKATONE], for which the MEC came out at 1.56 µg/g.

For the origin of these results see ChEMBL document CHEMBL3045732, “Structural requirements for repellency: norsesquiterpenes and sesquiterpenoid derivatives of nootkatone against the Formosan subterranean termite (Isoptera: Rhinotermitidae)” (2010).
